The values that follow come from patent publication US11702404B2, “GLP-1R modulating compounds” (priority 2019, dated 2023).

One series addresses GLP-1R (Homo sapiens, UniProt P43220). In words: GLP-1R activation: cAMP increase in CHO cells stably expressing GLP-1R. Format: cell-based. The following applies: cAMP increase, CHO cells stably expressing GLP-1R, 10 point dose response, 30 minutes incubation; read-out: EC50.
A short description of series [1]: Microsomal stability, human liver microsomes (predicted hepatic clearance). The following applies: predicted from in vitro microsomal stability data.

Usually EC50 stands for the concentration that produces a half-maximal response.

Chain of GLP-1R (P43220 24-463): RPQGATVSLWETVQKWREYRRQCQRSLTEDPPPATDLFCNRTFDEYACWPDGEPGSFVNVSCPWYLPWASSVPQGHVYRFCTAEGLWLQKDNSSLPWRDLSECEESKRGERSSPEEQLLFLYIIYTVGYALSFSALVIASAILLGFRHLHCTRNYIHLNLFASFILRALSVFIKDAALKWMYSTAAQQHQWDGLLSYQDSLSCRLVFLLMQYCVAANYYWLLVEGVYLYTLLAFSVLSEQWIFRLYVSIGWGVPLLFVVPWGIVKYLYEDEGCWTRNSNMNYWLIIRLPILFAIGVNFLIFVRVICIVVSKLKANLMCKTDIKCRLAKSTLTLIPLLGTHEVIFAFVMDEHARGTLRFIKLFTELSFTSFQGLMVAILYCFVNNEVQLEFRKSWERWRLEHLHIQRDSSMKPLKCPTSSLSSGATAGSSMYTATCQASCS

In the case of `COCCn1c(Cc2ccc(-c3ccc(C)c(OCc4ccc(C#N)cc4F)n3)cc2)nc2ccc(C(=O)O)cc21` (single isomer, unassigned) [Example 24, 2-(4-(6-((4-cyano-2-fluorobenzyl)oxy)-5-methylpyridin-2-yl)benzyl)-1-(2-methoxyethyl)-1H-benzo[d]imidazole-6-carboxylic acid], on GLP-1R, the EC50 turned out to be 1720 nM. Also, the “Predicted Hepatic Clearance (Pred. Cl.)” value in series [1] is 2.17 mL/min/kg.

Regarding `COCCn1c(C2CCc3cc(-c4cccc(OCc5ccc(C#N)cc5F)n4)ccc32)nc2ccc(C(=O)O)cc21` (single isomer, unassigned) [Example 46, 2-(5-(6-((4-cyano-2-fluorobenzyl)oxy)pyridin-2-yl)-2,3-dihydro-1H-inden-1-yl)-1-(2-methoxyethyl)-1H-benzo[d]imidazole-6-carboxylic acid], the EC50 at GLP-1R turned out to be 62.4 nM. For the same molecule, the “Predicted Hepatic Clearance (Pred. Cl.)” value in series [1] was 5 mL/min/kg.

`COCCn1c(C2CCc3cc(-c4cccc(OCc5ccc(C#N)cc5F)n4)ccc32)nc2ccc(C(=O)O)cc21` (single isomer, unassigned) [Example 47, 2-(5-(6-((4-cyano-2-fluorobenzyl)oxy)pyridin-2-yl)-2,3-dihydro-1H-inden-1-yl)-1-(2-methoxyethyl)-1H-benzo[d]imidazole-6-carboxylic acid]: the concentration giving a half-maximal response (EC50) on GLP-1R is 1440 nM. Moreover, the “Predicted Hepatic Clearance (Pred. Cl.)” value in series [1] is 4.67 mL/min/kg.

For `COCCn1c(C2OCCc3cc(-c4cccc(OCc5ccc(C#N)cc5F)n4)ccc32)nc2ccc(C(=O)O)cc21` (single isomer, unassigned) [Example 48, 2-(6-(6-((4-cyano-2-fluorobenzyl)oxy)pyridin-2-yl)isochroman-1-yl)-1-(2-methoxyethyl)-1H-benzo[d]imidazole-6-carboxylic acid], the EC50 on GLP-1R is 575 nM. For the same molecule, the “Predicted Hepatic Clearance (Pred. Cl.)” value in series [1] is 3.67 mL/min/kg.

With `COCCn1c(C2OCCc3cc(-c4cccc(OCc5ccc(C#N)cc5F)n4)ccc32)nc2ccc(C(=O)O)cc21` (single isomer, unassigned) [Example 49, 2-(6-(6-((4-cyano-2-fluorobenzyl)oxy)pyridin-2-yl)isochroman-1-yl)-1-(2-methoxyethyl)-1H-benzo[d]imidazole-6-carboxylic acid], the EC50 at GLP-1R is over 1000 nM. The “Predicted Hepatic Clearance (Pred. Cl.)” value in series [1] is 13 mL/min/kg.

`N#Cc1ccc(COc2cccc(-c3ccc(Cc4nc5ccc(C(=O)O)cc5n4CC4CCS4(=O)=O)c(F)c3)n2)c(F)c1` (single isomer, unassigned) [Example 69, 2-(4-(6-((4-cyano-2-fluorobenzyl)oxy)pyridin-2-yl)-2-fluorobenzyl)-1-((1,1-dioxidothietan-2-yl)methyl)-1H-benzo[d]imidazole-6-carboxylic acid]: the EC50 on GLP-1R is 12 nM. In series [1], the “Predicted Hepatic Clearance (Pred. Cl.)” value is under 1.83 mL/min/kg.

`N#Cc1ccc(COc2cccc(-c3ccc(Cc4nc5ccc(C(=O)O)cc5n4CC4CCS4(=O)=O)c(F)c3)n2)c(F)c1` (single isomer, unassigned) [Example 70, 2-(4-(6-((4-cyano-2-fluorobenzyl)oxy)pyridin-2-yl)-2-fluorobenzyl)-1-((1,1-dioxidothietan-2-yl)methyl)-1H-benzo[d]imidazole-6-carboxylic acid]: the 50% effective concentration (EC50) at GLP-1R worked out at 64 nM. Also, in series [1], the “Predicted Hepatic Clearance (Pred. Cl.)” value is 2.17 mL/min/kg.

Consider `COCCNC(=O)C(Cn1c(Cc2ccc(-c3cccc(OCc4ccc(C#N)cc4F)n3)cc2F)nc2ccc(C(=O)O)cc21)OC` (single isomer, unassigned) [Example 328, 2-(4-(6-((4-cyano-2-fluorobenzyl)oxy)pyridin-2-yl)-2-fluorobenzyl)-1-(2-methoxy-3-((2-methoxyethyl)amino)-3-oxopropyl)-1H-benzo[d]imidazole-6-carboxylic acid], for which, at GLP-1R, the EC50 was 26.5 nM. The “Predicted Hepatic Clearance (Pred. Cl.)” value in series [1] is 11 mL/min/kg.

Consider `COC(Cn1c(Cc2ccc(-c3cccc(OCc4ccc(C#N)cc4F)n3)cc2F)nc2ccc(C(=O)O)cc21)C(=O)Nc1nccs1` (single isomer, unassigned) [Example 329, 2-(4-(6-((4-cyano-2-fluorobenzyl)oxy)pyridin-2-yl)-2-fluorobenzyl)-1-(2-methoxy-3-oxo-3-(thiazol-2-ylamino)propyl)-1H-benzo[d]imidazole-6-carboxylic acid], for which the 50% effective concentration (EC50) at GLP-1R worked out at 286 nM. In series [1], the “Predicted Hepatic Clearance (Pred. Cl.)” value is 7.83 mL/min/kg.

On to `CNC(=O)C(Cn1c(Cc2ccc(-c3cccc(OCc4ccc(C#N)cc4F)n3)cc2F)nc2ccc(C(=O)O)cc21)OC` (single isomer, unassigned) [Example 330, 2-(4-(6-((4-cyano-2-fluorobenzyl)oxy)pyridin-2-yl)-2-fluorobenzyl)-1-(2-methoxy-3-(methylamino)-3-oxopropyl)-1H-benzo[d]imidazole-6-carboxylic acid], for which, on GLP-1R, the EC50 amounted to 17.2 nM. Also, the “Predicted Hepatic Clearance (Pred. Cl.)” value in series [1] is 3.17 mL/min/kg.

Consider `COC(Cn1c(Cc2ccc(-c3cccc(OCc4ccc(C#N)cc4F)n3)cc2F)nc2ccc(C(=O)O)cc21)C(=O)O` (single isomer, unassigned) [Example 332, 1-(2-carboxy-2-methoxyethyl)-2-(4-(6-((4-cyano-2-fluorobenzyl)oxy)pyridin-2-yl)-2-fluorobenzyl)-1H-benzo[d]imidazole-6-carboxylic acid], for which, on GLP-1R, the EC50 came out at 120 nM. In addition, in series [1], the “Predicted Hepatic Clearance (Pred. Cl.)” value was under 1.83 mL/min/kg.

For `COC(Cn1c(Cc2ccc(-c3cccc(OCc4ccc(C#N)cc4F)n3)cc2F)nc2ccc(C(=O)O)cc21)C(=O)O` (single isomer, unassigned) [Example 333, 1-(2-carboxy-2-methoxyethyl)-2-(4-(6-((4-cyano-2-fluorobenzyl)oxy)pyridin-2-yl)-2-fluorobenzyl)-1H-benzo[d]imidazole-6-carboxylic acid], on GLP-1R, the EC50 amounted to 624 nM. In series [1], the “Predicted Hepatic Clearance (Pred. Cl.)” value was under 1.83 mL/min/kg.

As for `COC(Cn1c(Cc2ccc(-c3cccc(OCc4ccc(C#N)cc4F)n3)cc2F)nc2ccc(C(=O)O)cc21)C(N)=O` (single isomer, unassigned) [Example 334, 1-(3-amino-2-methoxy-3-oxopropyl)-2-(4-(6-((4-cyano-2-fluorobenzyl)oxy)pyridin-2-yl)-2-fluorobenzyl)-1H-benzo[d]imidazole-6-carboxylic acid], at GLP-1R, the EC50 turned out to be 7.11 nM. Moreover, in series [1], the “Predicted Hepatic Clearance (Pred. Cl.)” value is 3.3 mL/min/kg.

For the molecule `COCCNC(=O)C(Cn1c(Cc2ccc(-c3cccc(OCc4ccc(C#N)cc4F)n3)cc2F)nc2ccc(C(=O)O)cc21)OC` (single isomer, unassigned) [Example 335, 2-(4-(6-((4-cyano-2-fluorobenzyl)oxy)pyridin-2-yl)-2-fluorobenzyl)-1-(2-methoxy-3-((2-methoxyethyl)amino)-3-oxopropyl)-1H-benzo[d]imidazole-6-carboxylic acid], at GLP-1R, the EC50 is 139 nM. The “Predicted Hepatic Clearance (Pred. Cl.)” value in series [1] was 4.83 mL/min/kg.

In the case of `CNC(=O)C(Cn1c(Cc2ccc(-c3cccc(OCc4ccc(C#N)cc4F)n3)cc2F)nc2ccc(C(=O)O)cc21)OC` (single isomer, unassigned) [Example 336, 2-(4-(6-((4-cyano-2-fluorobenzyl)oxy)pyridin-2-yl)-2-fluorobenzyl)-1-(2-methoxy-3-(methylamino)-3-oxopropyl)-1H-benzo[d]imidazole-6-carboxylic acid], on GLP-1R, the half-maximal effective concentration (EC50) turned out to be 4.9 nM. The “Predicted Hepatic Clearance (Pred. Cl.)” value in series [1] is 7 mL/min/kg.

In the case of `CNC(=O)C(Cn1c(Cc2ccc(-c3cccc(OCc4ccc(C#N)cc4F)n3)cc2F)nc2ccc(C(=O)O)cc21)OC` (single isomer, unassigned) [Example 337, 2-(4-(6-((4-cyano-2-fluorobenzyl)oxy)pyridin-2-yl)-2-fluorobenzyl)-1-(2-methoxy-3-(methylamino)-3-oxopropyl)-1H-benzo[d]imidazole-6-carboxylic acid], the concentration giving a half-maximal response (EC50) on GLP-1R is 13.7 nM. The “Predicted Hepatic Clearance (Pred. Cl.)” value in series [1] was 4.83 mL/min/kg.

On to `COC(Cn1c(Cc2ccc(-c3cccc(OCc4ccc(C#N)cc4F)n3)cc2F)nc2ccc(C(=O)O)cc21)C(=O)Nc1nccs1` (single isomer, unassigned) [Example 338, 2-(4-(6-((4-cyano-2-fluorobenzyl)oxy)pyridin-2-yl)-2-fluorobenzyl)-1-(2-methoxy-3-oxo-3-(thiazol-2-ylamino)propyl)-1H-benzo[d]imidazole-6-carboxylic acid], for which, on GLP-1R, the 50% effective concentration (EC50) was 2510 nM. Further, the “Predicted Hepatic Clearance (Pred. Cl.)” value in series [1] was 13 mL/min/kg.

With `COC(CN)Cn1c(Cc2ccc(-c3cccc(OCc4ccc(C#N)cc4F)n3)cc2F)nc2ccc(C(=O)O)cc21` (single isomer, unassigned) [Example 339, 1-(3-amino-2-methoxypropyl)-2-(4-(6-((4-cyano-2-fluorobenzyl)oxy)pyridin-2-yl)-2-fluorobenzyl)-1H-benzo[d]imidazole-6-carboxylic acid], the 50% effective concentration (EC50) at GLP-1R was found to be 566 nM. For the same molecule, the “Predicted Hepatic Clearance (Pred. Cl.)” value in series [1] was under 1.83 mL/min/kg.

With `COC(CN)Cn1c(Cc2ccc(-c3cccc(OCc4ccc(C#N)cc4F)n3)cc2F)nc2ccc(C(=O)O)cc21` (single isomer, unassigned) [Example 340, 1-(3-amino-2-methoxypropyl)-2-(4-(6-((4-cyano-2-fluorobenzyl)oxy)pyridin-2-yl)-2-fluorobenzyl)-1H-benzo[d]imidazole-6-carboxylic acid], at GLP-1R, the concentration giving a half-maximal response (EC50) came out at 44.1 nM. Besides, in series [1], the “Predicted Hepatic Clearance (Pred. Cl.)” value was under 1.83 mL/min/kg.

Turning to `COC(CNC(C)=O)Cn1c(Cc2ccc(-c3cccc(OCc4ccc(C#N)cc4F)n3)cc2F)nc2ccc(C(=O)O)cc21` (single isomer, unassigned) [Example 341, 1-(3-acetamido-2-methoxypropyl)-2-(4-(6-((4-cyano-2-fluorobenzyl)oxy)pyridin-2-yl)-2-fluorobenzyl)-1H-benzo[d]imidazole-6-carboxylic acid], the EC50 at GLP-1R was determined as 19.7 nM. For the same molecule, in series [1], the “Predicted Hepatic Clearance (Pred. Cl.)” value was 5.67 mL/min/kg.
